Experimental findings from patent US11254686B1 (Corvus Pharmaceuticals, Inc., priority 2017, dated 2022) are described below.

SMILES strings stand for the structures. Where only a bound is given, the exact number is not on record here.

The target in one experiment is adenosine A1 receptor (Homo sapiens (Human), UniProt P30542). Put plainly: Adenosine receptor activity assay (Table 1), A1 cAMP. The format is cell-based.
The target in the next experiment is adenosine A2B receptor (Homo sapiens (Human), UniProt P29275). Put plainly: Adenosine receptor activity assay (Table 1), A2B activity. Type of experiment: biochemical. The note with it: for Ratio: A2A activity to A2B activity (A2A/A2B); for IC50: read-out: Ave A2B cAMP IC50.
Sequence of adenosine A2B receptor (P29275 whole entry): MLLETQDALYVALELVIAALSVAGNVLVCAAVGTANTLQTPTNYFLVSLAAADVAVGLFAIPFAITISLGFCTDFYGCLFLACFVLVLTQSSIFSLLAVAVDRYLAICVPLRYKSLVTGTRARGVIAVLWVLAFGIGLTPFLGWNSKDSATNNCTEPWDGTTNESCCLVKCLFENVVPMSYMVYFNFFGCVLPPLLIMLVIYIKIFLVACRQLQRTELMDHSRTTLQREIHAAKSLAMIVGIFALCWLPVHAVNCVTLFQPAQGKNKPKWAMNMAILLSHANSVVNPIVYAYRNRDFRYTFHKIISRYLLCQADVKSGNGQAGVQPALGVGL
For a further experiment, the target named is adenosine A2A receptor (Homo sapiens (Human), UniProt P29274). Put plainly: Adenosine receptor activity assay (Table 1), A2A activity. The note with it: read-out: Ave A2A cAMP IC50. Type of experiment: biochemical.
Sequence of adenosine A2A receptor (P29274 whole entry): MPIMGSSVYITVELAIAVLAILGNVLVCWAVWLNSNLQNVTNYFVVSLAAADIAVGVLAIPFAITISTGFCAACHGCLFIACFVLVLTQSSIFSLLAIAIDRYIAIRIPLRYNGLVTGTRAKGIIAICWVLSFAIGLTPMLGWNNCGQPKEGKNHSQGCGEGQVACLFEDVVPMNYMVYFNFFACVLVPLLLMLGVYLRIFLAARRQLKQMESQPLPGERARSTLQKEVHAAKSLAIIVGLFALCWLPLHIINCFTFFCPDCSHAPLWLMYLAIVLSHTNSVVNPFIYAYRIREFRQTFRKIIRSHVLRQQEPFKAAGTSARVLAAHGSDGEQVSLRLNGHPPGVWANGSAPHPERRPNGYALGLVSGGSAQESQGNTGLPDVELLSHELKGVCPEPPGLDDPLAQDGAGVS
A further experiment has as its target adenosine A3 receptor (Homo sapiens (Human), UniProt P0DMS8). Put plainly: Adenosine receptor activity assay (Table 1), A3 cAMP. Type of experiment: cell-based.

Sequence of adenosine A1 receptor (P30542 whole entry): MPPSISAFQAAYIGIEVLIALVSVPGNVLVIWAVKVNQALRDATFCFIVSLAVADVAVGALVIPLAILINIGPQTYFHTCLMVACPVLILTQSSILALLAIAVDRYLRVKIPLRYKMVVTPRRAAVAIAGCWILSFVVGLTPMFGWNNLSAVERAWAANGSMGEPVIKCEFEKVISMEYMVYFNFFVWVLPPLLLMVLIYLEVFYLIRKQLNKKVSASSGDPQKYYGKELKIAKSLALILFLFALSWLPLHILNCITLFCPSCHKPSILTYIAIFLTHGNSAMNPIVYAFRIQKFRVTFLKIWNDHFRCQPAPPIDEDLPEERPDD
Sequence of adenosine A3 receptor (P0DMS8 whole entry): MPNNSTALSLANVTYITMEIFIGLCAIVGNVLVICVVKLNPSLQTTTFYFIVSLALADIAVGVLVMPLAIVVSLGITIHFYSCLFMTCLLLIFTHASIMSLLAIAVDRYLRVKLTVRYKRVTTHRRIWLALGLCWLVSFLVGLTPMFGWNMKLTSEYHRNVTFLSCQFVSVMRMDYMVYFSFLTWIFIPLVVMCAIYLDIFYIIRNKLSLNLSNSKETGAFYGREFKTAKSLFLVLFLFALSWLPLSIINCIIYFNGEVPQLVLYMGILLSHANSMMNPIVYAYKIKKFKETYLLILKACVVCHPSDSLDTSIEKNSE

On to `Cc1cc2nc(N[C@@H](C)c3cncc(F)c3)nc(C(=O)NCC(C)(C)O)c2s1` [Example Z308, (S)-2-((1-(5-Fluoropyridin-3-yl)ethyl)amino)-N-(2-hydroxy-2-methylpropyl)-6-methylthieno[3,2-d]pyrimidine-4-carboxamide], for which the IC50 at adenosine A1 receptor is 50 to 100 nM; on adenosine A2B receptor it was < 10 nM; on adenosine A2A receptor, 50 to 100 nM; on adenosine A3 receptor it was 50 to 100 nM. For the same molecule, at adenosine A2B receptor, the Ratio is 29.96.
`CC(=O)N[C@H]1CCN(C(=O)c2nc(N[C@@H](C)c3cncc(F)c3)nc3ccsc23)C1` [Example Z331, N—((S)-1-(2-(((S)-1-(5-Fluoropyridin-3-yl)ethyl)amino)thieno[3,2-d]pyrimidine-4-carbonyl)pyrrolidin-3-yl)acetamide]: the IC50 is > 500 nM at adenosine A1 receptor, < 10 nM on adenosine A2B receptor, 100 to 500 nM on adenosine A2A receptor and > 500 nM at adenosine A3 receptor. Further, the Ratio on adenosine A2B receptor was found to be 61.94.
Turning to `Cc1cc2nc(N[C@@H](C)c3cccnc3)nc(C(=O)NC[C@@H](C)O)c2s1` [Example Z334, N—((R)-2-Hydroxypropyl)-6-methyl-2-(((S′)-1-(pyridin-3-yl)ethyl)amino)thieno[3,2-d]pyrimidine-4-carboxamide], the IC50 on adenosine A1 receptor is > 500 nM; on adenosine A2B receptor, < 10 nM; on adenosine A2A receptor, 100 to 500 nM; on adenosine A3 receptor, 50 to 100 nM. On adenosine A2B receptor, the Ratio was 171.86.
For `Cc1cc2nc(N[C@@H](C)c3cncc(F)c3)nc(C(=O)N3CC[C@H](CO)C3)c2s1` [Example Z309, (2-(((S)-1-(5-Fluoropyridin-3-yl)ethyl)amino)-6-methylthieno[3,2-d]pyrimidin-4-yl)((S)-3-(hydroxymethyl)pyrrolidin-1-yl)methanone], the IC50 against adenosine A1 receptor is > 500 nM; at adenosine A2B receptor, < 10 nM; at adenosine A2A receptor, 50 to 100 nM; against adenosine A3 receptor, > 500 nM. In addition, the Ratio at adenosine A2B receptor amounted to 37.14.
Regarding `C[C@H](Nc1nc(C(=O)N2CCC[C@H]2C)c2sccc2n1)c1cncc(F)c1` [Example Z272, (2-(((S)-1-(5-Fluoropyridin-3-yl)ethyl)amino)thieno[3,2-d]pyrimidin-4-yl)((R)-2-methylpyrrolidin-1-yl)methanone], the IC50 on adenosine A1 receptor is > 500 nM; at adenosine A2B receptor, 10 to 50 nM; at adenosine A2A receptor it was 100 to 500 nM; on adenosine A3 receptor it was > 500 nM. Moreover, the Ratio at adenosine A2B receptor stood at 9.34.
Regarding `C[C@H](Nc1nc(C(=O)N[C@H]2CC[C@@H](O)C2)c2sccc2n1)c1cncc(F)c1` [Example Z329, 2-(((S)-1-(5-Fluoropyridin-3-yl)ethyl)amino)-N-((1S,3R)-3-hydroxycyclopentyl)thieno[3,2-d]pyrimidine-4-carboxamide], the IC50 at adenosine A1 receptor was 50 to 100 nM; at adenosine A2B receptor, < 10 nM; at adenosine A2A receptor, 10 to 50 nM; against adenosine A3 receptor it was 50 to 100 nM. Also, the Ratio at adenosine A2B receptor amounted to 26.05.
For the molecule `Cc1cc2nc(N[C@@H](C)c3ccccn3)nc(C(=O)N3CCC3)c2s1` [Example Z284, (S)-Azetidin-1-yl(6-methyl-2-((1-(pyridin-2-yl)ethyl)amino)thieno[3,2-d]pyrimidin-4-yl)methanone], the IC50 was 50 to 100 nM at adenosine A1 receptor, < 10 nM at adenosine A2B receptor, 50 to 100 nM at adenosine A2A receptor and 50 to 100 nM at adenosine A3 receptor. For the same molecule, at adenosine A2B receptor, the Ratio worked out at 56.67.
On to `Cc1cc2nc(N[C@@H](C)c3ccccn3)nc(C(=O)NCCO)c2s1` [Example Z353, (S)—N-(2-Hydroxyethyl)-6-methyl-2-((1-(pyridin-2-yl)ethyl)amino)thieno[3,2-d]pyrimidine-4-carboxamide], for which the IC50 is 50 to 100 nM against adenosine A1 receptor, < 10 nM on adenosine A2B receptor, 100 to 500 nM at adenosine A2A receptor and 50 to 100 nM on adenosine A3 receptor. Moreover, the Ratio at adenosine A2B receptor is given as 53.12.
For `CC(C)NC(=O)c1nc(N[C@@H](C)c2ccccn2)nc2ccsc12` [Example Z199, (S)—N-Isopropyl-2-((1-(pyridin-2-yl)ethyl)amino)thieno[3,2-d]pyrimidine-4-carboxamide], the IC50 was > 500 nM against adenosine A1 receptor, < 10 nM at adenosine A2B receptor, 10 to 50 nM at adenosine A2A receptor and 50 to 100 nM against adenosine A3 receptor. For the same molecule, the Ratio at adenosine A2B receptor came out at 3.51.
Regarding `Cc1cc2nc(N[C@@H](C)c3ccccn3)nc(C(=O)NC[C@@H](C)O)c2s1` [Example Z288, N—((R)-2-Hydroxypropyl)-6-methyl-2-(((S)-1-(pyridin-2-yl)ethyl)amino)thieno[3,2-d]pyrimidine-4-carboxamide], the IC50 against adenosine A1 receptor was > 500 nM; at adenosine A2B receptor, < 10 nM; at adenosine A2A receptor it was 100 to 500 nM; at adenosine A3 receptor, 50 to 100 nM. In addition, the Ratio at adenosine A2B receptor was 35.51.
Taken in the same sequence, the figures for `COc1cccc(CNC(=O)c2nc(N[C@@H](C)c3cncc(F)c3)nc3cc(C)sc23)n1` [Example Z374, (S)-2-((1-(5-Fluoropyridin-3-yl)ethyl)amino)-N-((6-methoxypyridin-2-yl)methyl)-6-methylthieno[3,2-d]pyrimidine-4-carboxamide] were 50 to 100 nM, < 10 nM, 100 to 500 nM, 10 to 50 nM and 19.21.
In the case of `C[C@H](Nc1nc(C(=O)NCC(F)(F)F)c2sccc2n1)c1ccccn1` [Example Z226, (S)-2-((1-(Pyridin-2-yl)ethyl)amino)-N-(2,2,2-trifluoroethyl)thieno[3,2-d]pyrimidine-4-carboxamide], the concentration for half-maximal inhibition (IC50) on adenosine A1 receptor is > 500 nM; on adenosine A2B receptor, < 10 nM; at adenosine A2A receptor, 50 to 100 nM; against adenosine A3 receptor, > 500 nM. The Ratio at adenosine A2B receptor is 11.22.
For the molecule `C[C@H](Nc1nc(C(=O)NCCC2CCNC2)c2sccc2n1)c1cncc(F)c1` (stereo partly drawn) [Example Z386, 2-(((S)-1-(5-Fluoropyridin-3-yl)ethyl)amino)-N-(2-(pyrrolidin-3-yl)ethyl)thieno[3,2-d]pyrimidine-4-carboxamide], the IC50 against adenosine A1 receptor is > 500 nM; on adenosine A2B receptor it was 10 to 50 nM; on adenosine A2A receptor, > 500 nM; at adenosine A3 receptor, > 500 nM. Moreover, at adenosine A2B receptor, the Ratio is given as 100.94.
For the molecule `C[C@H](Nc1nc(C(=O)NCC2CCOCC2)c2sccc2n1)c1cncc(F)c1` [Example Z339, (S)-2-((1-(5-Fluoropyridin-3-yl)ethyl)amino)-N-((tetrahydro-2H-pyran-4-yl)methyl)thieno[3,2-d]pyrimidine-4-carboxamide], the IC50 at adenosine A1 receptor is > 500 nM; at adenosine A2B receptor it was < 10 nM; on adenosine A2A receptor, 50 to 100 nM; at adenosine A3 receptor, > 500 nM. In addition, on adenosine A2B receptor, the Ratio is given as 10.57.
Regarding `Cc1cc2nc(N[C@@H](C)c3cccnc3)nc(C(=O)NC[C@H](C)O)c2s1` [Example Z328, N—((S)-2-Hydroxypropyl)-6-methyl-2-(((S)-1-(pyridin-3-yl)ethyl)amino)thieno[3,2-d]pyrimidine-4-carboxamide], the IC50 at adenosine A1 receptor was > 500 nM; on adenosine A2B receptor, < 10 nM; on adenosine A2A receptor, 100 to 500 nM; against adenosine A3 receptor, 50 to 100 nM. Further, the Ratio on adenosine A2B receptor stood at 107.75.
The matching figures for `C[C@H](Nc1nc(C(=O)N[C@@H]2CCN(C(=O)OC(C)(C)C)C2)c2sccc2n1)c1ccccn1` [Example Z326, tert-Butyl (R)-3-(2-(((S)-1-(pyridin-2-yl)ethyl)amino)thieno[3,2-d]pyrimidine-4-carboxamido)pyrrolidine-1-carboxylate]: > 500 nM, 50 to 100 nM, 10 to 50 nM, 10 to 50 nM and 0.54.
`C[C@H](Nc1nc(C(=O)N2CC[C@H](O)C2)c2sccc2n1)c1cncc(Cl)c1` [Example Z236, (2-(((S)-1-(5-Chloropyridin-3-yl)ethyl)amino)thieno[3,2-d]pyrimidin-4-yl)((S)-3-hydroxypyrrolidin-1-yl)methanone]: the IC50 at adenosine A1 receptor was > 500 nM; on adenosine A2B receptor, 10 to 50 nM; at adenosine A2A receptor, > 500 nM; against adenosine A3 receptor it was > 500 nM. Moreover, the Ratio on adenosine A2B receptor was found to be 57.61.
As to `C[C@H](O)CNC(=O)c1nc(N[C@@H](C)c2cncc(Cl)c2)nc2ccsc12` [Example Z292, 2-(((S)-1-(5-Chloropyridin-3-yl)ethyl)amino)-N—((S)-2-hydroxypropyl)thieno[3,2-d]pyrimidine-4-carboxamide], the IC50 at adenosine A1 receptor is 50 to 100 nM; at adenosine A2B receptor it was 10 to 50 nM; at adenosine A2A receptor, > 500 nM; against adenosine A3 receptor it was 50 to 100 nM. For the same molecule, the Ratio on adenosine A2B receptor was determined as 60.59.
For `C[C@H](Nc1nc(C(=O)N2CCCC2)c2sc(C(F)(F)F)cc2n1)c1cccnc1` [Example Z327, (S)-(2-((1-(Pyridin-3-yl)ethyl)amino)-6-(trifluoromethyl)thieno[3,2-d]pyrimidin-4-yl)(pyrrolidin-1-yl)methanone], the IC50 was > 500 nM against adenosine A1 receptor, < 10 nM on adenosine A2B receptor, > 500 nM on adenosine A2A receptor and > 500 nM at adenosine A3 receptor. For the same molecule, the Ratio at adenosine A2B receptor is recorded as 143.99.
Regarding `C[C@H](Nc1nc(C(=O)NCCO)c2sccc2n1)c1cncc(F)c1` [Example Z275, (S)-2-((1-(5-Fluoropyridin-3-yl)ethyl)amino)-N-(2-hydroxyethyl)thieno[3,2-d]pyrimidine-4-carboxamide], the IC50 was > 500 nM on adenosine A1 receptor, < 10 nM at adenosine A2B receptor, 100 to 500 nM on adenosine A2A receptor and > 500 nM against adenosine A3 receptor. The Ratio at adenosine A2B receptor is 24.38.
In the case of `Cc1cc2nc(N[C@@H](C)c3cncc(F)c3)nc(C(=O)NCCc3ccc(O)cc3)c2s1` [Example Z373, (S)-2-((1-(5-Fluoropyridin-3-yl)ethyl)amino)-N-(4-hydroxyphenethyl)-6-methylthieno[3,2-d]pyrimidine-4-carboxamide], the IC50 is 50 to 100 nM against adenosine A1 receptor, < 10 nM on adenosine A2B receptor, 100 to 500 nM on adenosine A2A receptor and 10 to 50 nM against adenosine A3 receptor. The Ratio at adenosine A2B receptor was 75.08.
